Test results taken from US7906618B2, “Peptide capable of binding to insulin-binding protein and adsorbent” (Kaneka Corporation, priority 2004, dated 2011).
Ends that are not written are not given here.

Molecular target: T1, Recombinant Human Insulin Receptor (28-956) (soluble insulin receptor, SIR) (Homo sapiens, UniProt P06213)
T1 construct: Recombinant Human Insulin Receptor (28-956); purchased GT/TECHNE Corp
Test: BIAcore determination of peptide-SIR binding (peptide immobilized on sensor chip CM5, soluble insulin receptor as analyte)
Conditions: sensor chip CM5, amine coupling, HBS-EP buffer, SIR 100 nM to 0.781 nM, flow 10 μl/min; for koff: read-out: Dissociation rate constant (peptide-SIR)
Method: The affinity for the soluble insulin receptor identified by SEQ ID NO:1 is compared by the method using BIAcore (BIAcore AB) (as described in Am. J. Physiol. 272 (1997) E1089-1098). Briefly, a solution of the soluble insulin receptor is brought into contact with the surface of the ready-made sensor chip with the peptide defined by SEQ ID NO:1 as immobilized thereon, and the interaction is measured.
The dissociation constant (KD) of the peptide P14 obtained in Example 3 was determined using BIAcore upgrade (Biacore AB) and the analysis software BIA evaluation version 3.0 (Biacore AB).
(§1) The ligand was immobilized on the sensor chip CM5 research grade (Biacore AB) by the amine coupling method. Thus, the peptide mentioned above was dissolved in 20 mM carbonate buffer (pH 8.5) (500 μg/ml), and 100 μl of the solution was passed through the flow cell at a flow rate of 5 μl/min. The amount of the peptide immobilized was 200 RU (resonance units).
Recombinant Human Insulin Receptor (28-956) (GT/TECHNE Corp.) was used as the analyte soluble insulin receptor (SIR). To 50 mg in a vial was added HBS-EP buffer (250 ml) for thorough dissolution ([…]), and the solution was 10-fold diluted to give a 100 nM solution. Eight concentration levels from 100 nM to 0.781 nM were prepared by subsequent repetitions of doubling dilution, and measurements were carried out using HBS-EP buffer (10 mM HEPES pH 7.4, 0.15M NaCl, 3 mM EDTA, 0.005% Surfactant P20) (Biacore AB) as a running solution; the rate of flow was 10 μl/min. A sensorgram was thus obtained.
The dissociation constant (KD) of the peptide P15 obtained in Example 6 was determined using BIAcore upgrade (Biacore AB) and the analysis software BIA evaluation version 3.0 (Biacore AB).
as §1, with “130 RU.” for “200 RU (resonance units).”
Recombinant Human Insulin Receptor (28-956) (GT/TECHNE Corp.) was used as the analyte SIR. Eight concentration levels from 100 nM to 0.781 nM were prepared by subsequent repetitions of doubling dilution, which was started from diluting 100 nM solution, and measurements were carried out using HBS-EP buffer as a running solution; the rate of flow was 10 μl/min. A sensorgram was thus obtained.
The dissociation constant (KD) of the peptide P21 obtained in Example 7 was determined using BIAcore upgrade (Biacore AB) and the analysis software BIA evaluation version 3.0 (Biacore AB).
as §1, with “270 RU.” for “200 RU (resonance units).”

T1 sequence (P06213 28-956): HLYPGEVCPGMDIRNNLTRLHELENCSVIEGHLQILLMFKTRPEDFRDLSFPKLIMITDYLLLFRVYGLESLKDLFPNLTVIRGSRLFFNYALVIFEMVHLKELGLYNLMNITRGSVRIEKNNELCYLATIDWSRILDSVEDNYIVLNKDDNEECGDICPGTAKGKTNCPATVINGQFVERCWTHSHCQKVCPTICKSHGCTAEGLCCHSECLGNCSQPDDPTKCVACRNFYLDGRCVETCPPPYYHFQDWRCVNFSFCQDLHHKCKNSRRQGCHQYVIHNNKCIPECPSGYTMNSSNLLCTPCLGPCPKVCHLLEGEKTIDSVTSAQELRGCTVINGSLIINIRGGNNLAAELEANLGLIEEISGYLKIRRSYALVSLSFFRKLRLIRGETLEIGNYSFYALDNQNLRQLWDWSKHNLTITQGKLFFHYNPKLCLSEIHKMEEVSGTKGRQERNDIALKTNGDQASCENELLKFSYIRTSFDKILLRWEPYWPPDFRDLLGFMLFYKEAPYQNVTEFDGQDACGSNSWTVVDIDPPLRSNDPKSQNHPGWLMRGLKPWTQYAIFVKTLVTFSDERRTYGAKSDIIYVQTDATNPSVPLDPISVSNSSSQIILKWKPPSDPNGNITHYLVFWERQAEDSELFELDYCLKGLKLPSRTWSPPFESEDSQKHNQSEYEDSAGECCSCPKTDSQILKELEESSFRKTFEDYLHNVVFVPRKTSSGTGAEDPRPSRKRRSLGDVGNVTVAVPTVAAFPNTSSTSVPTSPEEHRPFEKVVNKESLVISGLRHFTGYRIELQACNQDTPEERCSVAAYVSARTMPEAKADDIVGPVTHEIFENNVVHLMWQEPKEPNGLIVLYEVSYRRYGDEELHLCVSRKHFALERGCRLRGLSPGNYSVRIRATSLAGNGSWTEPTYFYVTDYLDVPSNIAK

Sequence	Binding rate constant (peptide-SIR)	koff [s⁻¹]
CASDIVEGIYL [Peptide P15, CASDIVEGIYL]	8.6E+02	0.02
CASDIVEGLYIVLAER [Peptide P14, CASDIVEGLYIVLAER]	9.7E+03	0.015
CQHILGSDIVEGIYL [Peptide P21, CQHILGSDIVEGIYL]	5.1E+04	0.6
